A word on the ED50: it is the dose at which the effect has come halfway, by size or by number of responders.

The subject of assay [1] is CFA-induced thermal hyperalgesia. Description: CFA model, thermal hyperalgesia (Hargreaves plantar test). Format: in vivo, rat. The settings on record: CFA 48 h prior. As for the experimental part:
Assessment of thermal hyperalgesia: Baseline and post-treatment withdrawal latencies to a noxious thermal stimulus were measured according to Hargreaves (Hargreaves et al., 1988) using a plantar test analgesia meter (IITC, Woodland Hills, Calif., model # 336). The stimulus intensity was set at 30% of maximum output and the cut-off time was set at 30 seconds. Rats were placed on a glass plate warmed to 28° C. and allowed to habituate to the testing chambers for a minimum of 15 minutes prior to each testing session. The thermal stimulus was applied to the plantar surface of the paw, and the mean latency of three readings on each paw was used as the latency value for each time point. Thermal thresholds were defined as the latency in seconds to the first pain behavior, which includes nocifensive paw withdrawal, flinching, biting and/or licking of the stimulated paw. The mean and standard error of the mean (SEM) were determined for the injured and normal paws for each treatment group.
For comparison, results with morphine (6 mg/kg sc) and indomethacin (30 mg/kg po) are shown. […] Data are expressed as mean±SEM, (n=10). **P<0.01, vs. baseline.

In the next assay the target is T1, hASIC1a (Homo sapiens, UniProt P78348).
T1 sequence (P78348 1-528): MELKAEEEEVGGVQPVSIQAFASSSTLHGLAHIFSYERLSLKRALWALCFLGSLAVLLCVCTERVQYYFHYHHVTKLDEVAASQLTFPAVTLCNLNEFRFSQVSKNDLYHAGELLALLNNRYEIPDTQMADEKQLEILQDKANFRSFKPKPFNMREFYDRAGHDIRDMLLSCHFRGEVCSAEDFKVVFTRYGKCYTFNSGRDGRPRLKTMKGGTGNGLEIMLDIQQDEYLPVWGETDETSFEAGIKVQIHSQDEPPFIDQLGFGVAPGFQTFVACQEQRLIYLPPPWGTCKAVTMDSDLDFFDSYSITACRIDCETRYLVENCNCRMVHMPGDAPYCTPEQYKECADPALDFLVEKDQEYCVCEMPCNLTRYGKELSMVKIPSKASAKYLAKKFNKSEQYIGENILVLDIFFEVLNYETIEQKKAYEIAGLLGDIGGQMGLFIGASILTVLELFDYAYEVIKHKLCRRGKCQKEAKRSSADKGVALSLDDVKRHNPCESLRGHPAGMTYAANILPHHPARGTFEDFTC
Nature of the assay: Whole-cell voltage clamp of pH-evoked response of human ASIC1a stably transfected in CHO cells. Format: cell-based. Set-up: expressed in transfected cells. The following applies: CHO cells. The protocol:
FIG. 3 illustrates the inhibitory effect of Compound A on acid-evoked activation of human ASIC1a stably transfected in CHO cells. […] In this example, the size of the pH-evoked response was determined by measuring the area under the curve of the response (total charge transfer) and normalized to the control response. FIG. 3B depicts an example of an hASIC1a current (whole cell voltage clamp, −60 mV) evoked by a pH 6.8-buffered solution (from pH 7.4) in the presence or absence of Compound A (3 μM).
These endogenous proton-activated inward currents were recorded in the presence and absence of Compound J (1 μM) or Compound K (1 μM) using the whole cell configuration of the patch clamp method (voltage clamp mode).
All experiments are performed at room temperature (20-25° C.) in voltage clamp using conventional whole cell patch clamp methods (Neher, E., et al. (1978) Pfluegers Arch 375:219-228).
Coverslips with the cells are transferred to a 15 μl experimental chamber mounted on the stage of an inverted microscope (IMT-2, Olympus) supplied with Nomarski optics. Cells are continuously superfused with extracellular saline at a rate of 2.5 ml/min. After giga-seal formation, the whole cell configuration is attained by suction. The cells are held at a holding voltage of −60 mV and at the start of each experiment the current is continuously measured for 45 s to ensure a stable baseline. Solutions of low pH (<7) are delivered to the chamber through a custom-made gravity-driven flowpipe, the tip of which is placed approximately 50 μm from the cell. Application is triggered when the tubing connected to the flowpipe is compressed by a valve controlled by the Pulse-software. Initially, low pH (in general, pH 6.5) is applied for 5 s every 60 s. The sample interval during application is 5501s. After stable responses are obtained, the extracellular saline as well as the low-pH solution are switched to solutions containing the compound to be tested. The compound is present until responses of a repeatable amplitude are achieved. Current amplitudes are measured at the peak of the responses, and effect of the compounds is calculated as the amplitude at compound equilibrium divided by the amplitude of the current evoked by the pulse just before the compound was included.
The following salt solutions are used: extracellular solution (mM): NaCl (140), KCl (4), CaCl2 (2), MgCl2 (4), HEPES (10, pH 7.4); intracellular solution (mM): KCl (120), KOH (31), MgCl2 (1.785), EGTA (10), HEPES (10, pH 7.2). In general, compounds for testing are dissolved in 50% DMSO at 500 fold the highest concentration used.
Similar findings are shown in FIG. 3 with the human ASIC1a stably transfected in CHO cells. FIG. 3A compares the dose-response relationship between Compound A and amiloride [determined by measuring the area under the curve of the response (total charge transfer) and normalized to the control response]. […] FIGS. 14A and 14B show similar results for Compounds J and K.

Regarding `COc1ccc(F)cc1-c1cc2c(c3c1CCN(C)C3)NC(=O)/C2=N/O` [Compound A, 5-(5-fluoro-2-methoxyphenyl)-6,7,8,9-tetrahydro-3-(hydroxyimino)-8-methyl-1H-pyrrolo[3,2-h]isoquinoline-2(3H)-one], the “reversal of CFA-induced thermal hyperalgesia” value in assay [1] (3 h after i.p. administration, dose-dependent) is “fully reversing the thermal hyperalgesia”. Further, the ED50 in assay [1] (Rattus norvegicus, ip, measured 3 h after i.p. administration, n=10, read-out: ED50, reversal of CFA-induced thermal hyperalgesia) worked out at 6.5 mg/kg. Also, the “effect on size of human ASIC1a pH-evoked response (area under the curve, total charge transfer, normalized to control)” value at hASIC1a (-60 mV, pH 6.8 from pH 7.4) is “reduce the human ASIC1a pH-evoked response in a dose-dependent manner”. Moreover, the “potency relative to amiloride” value on hASIC1a (human ASIC1a pH-evoked response) was “about 100 fold”.

Values taken from patent publication US7718641B2, “Pyrrolo [3,4-H] isoquinoline compounds and methods for modulating gated ion channels” (Aros Pharma ApS, priority 2005, dated 2010).
